{"source": "ChEMBL document CHEMBL1201862", "about": "“PubChem BioAssay data set” (2004)", "target": "Envelope glycoprotein gp160 (Human immunodeficiency virus 1, UniProt Q6QLK5)", "sequence (Q6QLK5 whole entry, the tested form may be a part)": "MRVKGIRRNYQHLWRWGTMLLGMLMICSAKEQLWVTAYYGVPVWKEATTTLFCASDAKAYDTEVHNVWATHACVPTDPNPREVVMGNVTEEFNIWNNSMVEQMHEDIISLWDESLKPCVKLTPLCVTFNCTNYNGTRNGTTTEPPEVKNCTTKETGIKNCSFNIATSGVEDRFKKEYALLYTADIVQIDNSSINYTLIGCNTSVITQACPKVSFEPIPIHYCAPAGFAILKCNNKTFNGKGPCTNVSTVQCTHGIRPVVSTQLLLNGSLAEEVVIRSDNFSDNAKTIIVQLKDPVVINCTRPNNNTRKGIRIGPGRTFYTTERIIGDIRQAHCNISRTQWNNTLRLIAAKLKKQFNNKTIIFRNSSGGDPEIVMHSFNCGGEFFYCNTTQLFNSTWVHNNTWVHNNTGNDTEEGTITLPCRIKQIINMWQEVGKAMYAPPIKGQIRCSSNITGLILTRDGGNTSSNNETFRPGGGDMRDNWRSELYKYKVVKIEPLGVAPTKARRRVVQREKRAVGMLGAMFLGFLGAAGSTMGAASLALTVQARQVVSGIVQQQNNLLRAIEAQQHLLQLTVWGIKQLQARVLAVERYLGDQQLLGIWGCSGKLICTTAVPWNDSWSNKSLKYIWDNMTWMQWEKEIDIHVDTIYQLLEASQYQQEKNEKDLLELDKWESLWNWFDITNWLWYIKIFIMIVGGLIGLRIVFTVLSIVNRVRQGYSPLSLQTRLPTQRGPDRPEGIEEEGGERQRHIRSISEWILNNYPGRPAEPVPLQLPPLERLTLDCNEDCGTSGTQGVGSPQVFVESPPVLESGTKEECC", "assay": "inhibitors of HIV fusion peptide binding, primary screen, biochemical, uHTS, fluorescence dequenching (AID 1986)", "note": "Activity calls are given as the source filed them. No stated cut-off is given here; in the data, actives have a measured IC50 and inactives only a lower limit."}
{"compound": "N#Cc1c(-c2ccccc2)nc(SCc2cccc(C(F)(F)F)c2)[nH]c1=O", "values": [{"measurement": "IC50", "result": "10.4 µM (active)"}]}
{"compound": "O=[N+]([O-])c1cc(Cl)cc(/C=N/NC(=S)Nc2cc(S(=O)(=O)N3CCOCC3)ccc2Cl)c1O", "values": [{"measurement": "IC50", "result": "9.41 µM (active)"}]}
